Measurements reported in patent publication US9192602B2, “Indication of anthra[2,1,c][1,2,5]thiadiazole-6,11-dione compound in alleviating pain” (NATIONAL CENTRAL UNIVERSITY, priority 2014, dated 2015).

Experiments:
mice = experiment: Inflammatory pain: chronic inflammatory pain induced by Complete Freund's Adjuvant (CFA), von Frey test; type: in vivo; conditions: 60 min after CFA
Description: When 50% CFA was intraplantarly injected into the mouse, paw edema and chronic mechanical hyperalgesia were developed in the tested mice. Different dosages of the anthra[2,1-c][1,2,5]thiadiazole-6,11-dione compound, 0.22, 2.2, 22 μg/kg were intraplantarly injected into mouse hindpaw, followed by 50% CFA injection. At 60 minutes after the CFA injection, the pain sensitivity of the mice was measured by mechanical stimulation using von Frey filaments.
(§1) 2.2 μg/kg of the compound was administered to the mice by intraplantar injection about 5 minutes prior to the injection of the acid solution. An hour after the injection of the acid, the hypersensitivity of the mice to mechanical stimuli was measured using von Frey filaments (Touch-Test North Coast Medical, Inc., Margan Hill, Calif.). […] 60 minutes after the mice were administered with the compound, the mechanical hyperalgesia was assessed through the measurement of paw withdrawal frequencies by a sequential series of von Frey filaments of weights 0.6, 1.0, 1.4, 2.0 and 4.0 g applied perpendicularly to the plantar surface of the paw. […] The occurrence of paw withdrawal resulting from the stimulation or removing the stimulation for each trial was quantified as a percentage response frequency for each monofilament. When the frequency was more than 50%, the weight of the von Frey filaments was determined as the paw withdrawal threshold (PWT). […]

CD-1 mice [1] = experiment: Nociceptive pain: acute pain induced by acid solution, von Frey mechanical hyperalgesia test; type: in vivo
Description: Anthra[2,1-c][1,2,5]thiadiazole-6,11-dione (NSC745885, B1) was intraplantarly injected into the right hind paws of 8 to 12-week-old CD-1 mice. 5 minutes after the injection, 25 μL of pH 5.0 acid solution was intraplantarly injected into each of the mice. About 60 minutes later, the mice were directly tested with the hypersensitivity to mechanical stimuli using von Frey filaments (Touch-Test North Coast Medical, Inc., Margan Hill, Calif.). The control group was conducted under the same conditions except it was treated with a compound-free saline. […]
as §1, with “monofilament.” for “monofilament. When the frequency was more than 50%, the weight of the von Frey filaments was determined as the paw withdrawal threshold (PWT).”

CD-1 mice [2] = experiment: Neuropathic pain: chronic constriction injury (CCI) of the sciatic nerve, von Frey mechanical hyperalgesia test; type: in vivo
Text: The assessment of the effectiveness of the compound for alleviating neuropathic pain used the animal model of chronic constriction injury (CCI) of the sciatic nerve, which was established by Bennett and Xie (1988). After the surgery, the mice developed long-lasting hypersensitivity to mechanical stimuli (chronic mechanical hyperalgesia) even being lightly touched. The mechanical hyperalgesia test was used to evaluate the analgesic effect of the compound.
The mice, after a week following the ligation surgery, were intraplantarly injected with a series of different dosages of the compound, 0.22, 2.2, 22 μg/kg or the mice were injected with 2.2 μg/kg of compound intrathecally, or with 44 μg/kg of the compound intraperitoneally. The hypersensitivity to mechanical stimuli was measured using von Frey filaments at 60 minutes after the injection. The mice injected with saline following surgery were the control group and the other mice injected with gabapentin following surgery were the positive control group.
2.2 μg/kg of the compound was administered to the mice by intraplantar injection about 5 minutes prior to the injection of the acid solution. An hour after the injection of the acid, the hypersensitivity of the mice to mechanical stimuli was measured using von Frey filaments (Touch-Test North Coast Medical, Inc., Margan Hill, Calif.). The mice were placed in transparent plastic chambers (10×8×10 cm) on a metal mesh floor at least 30 minutes per day for 2 days to acclimatize them to the testing room prior to the test. 60 minutes after the mice were administered with the compound, the mechanical hyperalgesia was assessed through the measurement of paw withdrawal frequencies by a sequential series of von Frey filaments of weights 0.6, 1.0, 1.4, 2.0 and 4.0 g applied perpendicularly to the plantar surface of the paw. The paw was briefly stimulated with force sufficient to slightly bend the filaments and a single trial consisted of repeated applications of the von Frey filaments five times, each application lasting for about 5 seconds. The occurrence of paw withdrawal resulting from the stimulation or removing the stimulation for each trial was quantified as a percentage response frequency for each monofilament. When the frequency was more than 50%, the weight of the von Frey filaments was determined as the paw withdrawal threshold (PWT). To make sure all the mice were under normal physical conditions, all housing conditions complied with general feeding standards, and the temperature and illumination were maintained in a suitable range.
According to the method described by Bennett and Xie, Pain, 1988, 33, 87-107, 8 to 12-week-old CD-1 mice were subjected to chronic constriction injury (CCI) of the sciatic nerve, which is an animal model inducing chronic neuropathic pain. To anesthetize the mice, each of the mice was injected with 240 mg/kg of 2,2,2-tribromoethanol (Avertin). Then three ligatures were loosely tied around the sciatic nerve of the mouse with chromic gut. The surgical procedure for the Sham (non ligation) control group was identical to that mentioned above except that the sciatic nerves were not ligated. A week after the mice in the experimental (CCI+compound) group had chronic constriction injury of sciatic nerves, the compound was intraplantarly, intrathecally, or intraperitoneally injected into the mice. 60 minutes after the injection, the mice were directly subjected to the hypersensitivity test to mechanical stimuli. The mice under the surgery treated with saline were the CCI group; the mice treated with gabapentin were the positive control (CCI+Gabapentin) group.

human cancer cell lines = conditions: NCI panel (leukemia, non-small cell lung cancer, colon cancer, etc.); Taiwan Patent application 097112087; cited from earlier work

Row | Structure (SMILES) | paw withdrawal threshold (PWT) (mice; 2.2 μg/kg intraplantar 5 min before 50% CFA, CFA only 0.4±0.033 g, control 3.6±0.202 g) [g] | paw withdrawal threshold (PWT) (mice; 22 μg/kg intraplantar 5 min before 50% CFA) [g] | paw withdrawal threshold (PWT) (CD-1 mice [1]; 2.2 μg/kg intraplantar, 5 min before 25 μL pH 5.0 acid solution, measured about 60 min later, acid only 1.1±0.065 g, control 4.0±0 g) [g] | paw withdrawal threshold (PWT) (CD-1 mice [1]; sole injection of the compound without the acid solution, did not induce pain) [g] | development of tolerance to the compound (CD-1 mice [2]; 2.2 μg/kg intraplantar once every week for three weeks) | paw withdrawal threshold (PWT) (CD-1 mice [2]; 2.2 μg/kg intraplantar once every week for three weeks, first week) [g] | paw withdrawal threshold (PWT) (CD-1 mice [2]; 2.2 μg/kg intraplantar once every week for three weeks, second week) [g] | paw withdrawal threshold (PWT) (CD-1 mice [2]; 2.2 μg/kg intraplantar once every week for three weeks, third week) [g] | paw withdrawal threshold (PWT) (CD-1 mice [2]; 2.2 μg/kg intraplantar, one week after CCI surgery, 60 min after injection, CCI only 0.9±0.23 g, control 3.6±0.29 g) [g] | paw withdrawal threshold (PWT) (CD-1 mice [2]; 2.2 μg/kg intrathecal, one week after CCI surgery, 60 min after injection) [g] | paw withdrawal threshold (PWT) (CD-1 mice [2]; 22 μg/kg intraplantar, one week after CCI surgery, 60 min after injection) [g] | inhibition of mechanical hyperalgesia induced by CCI of the sciatic nerve (CD-1 mice [2]; 44 μg/kg intraperitoneal) | anti-proliferative activity against human cancer cell lines (human cancer cell lines) | dosage required to inhibit chronic mechanical hyperalgesia caused by CCI (CD-1 mice [2]; intraperitoneal injection)
1 | O=C1c2ccccc2C(=O)c2c1ccc1nsnc21 [B1, Anthra[2,1-c][1,2,5]thiadiazole-6,11-dione] | 1.6 ± 0.15 | 3.0 ± 0.45 | 3.3 ± 0.67 | 4.0 ± 0 | no obvious indication that the mice developed tolerance | 2.5 ± 0.8 | 2.0 ± 0 | 2.7 ± 0.67 | 2.5 ± 0.8 | 4.0 | 4.0 ± 0.0 | completely inhibited mechanical hyperalgesia | shows anti-proliferative activity against human cancer cell lines | –
2 | NCC1(CC(=O)O)CCCCC1 [gabapentin, reference compound] | – | – | – | – | – | – | – | – | – | – | – | – | – | at least 15,000 μg/kg
